This note sets out measurements from the supplement of paper PMC10307832.

Holding throughout (assay): relative viability (nuclei count vs DMSO), 5 days (fraction); higher = more cells survive
Compound in the experiment “RU-SKI 43 + Pemetrexed”: CC[C@@H](C)CNCC(=O)N1CCC2=C([C@@H]1COC3=CC=CC(=C3)C)C=CS2 [RU-SKI 43] + Nc1nc2[nH]cc(CCc3ccc(C(=O)N[C@@H](CCC(=O)O)C(=O)O)cc3)c2c(=O)[nH]1 [Pemetrexed] (partner 0.2 µM)
In outline:
(§1)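 Lung cancer cell lines were seeded in 1536-well plates and dosed by pin tool the next day, with either a single drug or a fixed anchor-drug dose combined with five library-drug doses (not always all listed) spaced in √10 steps. Five days later, one step fixed the cells and stained their nuclei (final 0.05% Triton X-100, 1% formaldehyde, 1 ug/ml Hoechst), and nuclei were counted on 4× images. Relative viability is the nuclei count in treated wells divided by the count in vehicle wells, and each value is the median of duplicate plates.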

Compound in the experiment “Irinotecan + Pictilisib”: CCc1c2c(nc3ccc(OC(=O)N4CCC(N5CCCCC5)CC4)cc13)-c1cc3c(c(=O)n1C2)COC(=O)[C@]3(O)CC [Irinotecan] + CS(=O)(=O)N1CCN(Cc2cc3nc(-c4cccc5[nH]ncc45)nc(N4CCOCC4)c3s2)CC1 [Pictilisib] (partner 1 µM)
In outline: as §1

Compound in the experiment “MK-8033 + Alpelisib”: Cn1cc(-c2cnc3ccc4ccc(CS(=O)(=O)NCc5ccccn5)cc4c(=O)c3c2)cn1 [MK-8033] + Cc1nc(NC(=O)N2CCC[C@H]2C(N)=O)sc1-c1ccnc(C(C)(C)C(F)(F)F)c1 [Alpelisib] (partner 2 µM)
In short, it runs like this: as §1

Compound in the experiment “Irinotecan + Foretinib”: CCc1c2c(nc3ccc(OC(=O)N4CCC(N5CCCCC5)CC4)cc13)-c1cc3c(c(=O)n1C2)COC(=O)[C@]3(O)CC [Irinotecan] + COc1cc2c(Oc3ccc(NC(=O)C4(C(=O)Nc5ccc(F)cc5)CC4)cc3F)ccnc2cc1OCCCN1CCOCC1 [Foretinib] (partner 0.25 µM)
In outline:
as §1

On to 201T, for which the relative viability in the experiment with RU-SKI 43 + Pemetrexed (first compound 0.1 µM) worked out at 0.374; in the experiment with RU-SKI 43 + Pemetrexed (first compound 0.3162 µM) it was 0.311; in the experiment with RU-SKI 43 + Pemetrexed (first compound 1 µM), 0.307; with RU-SKI 43 + Pemetrexed (first compound 3.162 µM), 0.358; in the experiment with RU-SKI 43 + Pemetrexed (first compound 10 µM) it was 0.321; with Irinotecan + Pictilisib (first compound 2 µM), 0.738. The relative viability with Irinotecan + Pictilisib (first compound 6.325 µM) came to 0.36; in the experiment with Irinotecan + Pictilisib (first compound 20 µM) it was 0.346; with MK-8033 + Alpelisib (first compound 0.02 µM) it was 1.11; with MK-8033 + Alpelisib (first compound 0.06325 µM), 0.946; with MK-8033 + Alpelisib (first compound 0.2 µM), 0.976; with MK-8033 + Alpelisib (first compound 0.6325 µM) it was 1.05. Besides, the relative viability was 1.04 with MK-8033 + Alpelisib (first compound 2 µM), 0.991 with Irinotecan + Foretinib (first compound 2 µM), 0.53 with Irinotecan + Foretinib (first compound 6.325 µM) and 0.151 in the experiment with Irinotecan + Foretinib (first compound 20 µM).
With A549, the relative viability in the experiment with Irinotecan + Pictilisib (first compound 0.6325 µM) was 0.502; with Irinotecan + Pictilisib (first compound 2 µM), 0.452; with Irinotecan + Pictilisib (first compound 6.325 µM), 0.139; with Irinotecan + Pictilisib (first compound 20 µM), 0.0724; with MK-8033 + Alpelisib (first compound 0.02 µM) it was 0.692; with MK-8033 + Alpelisib (first compound 0.06325 µM), 0.685. Further, the relative viability in the experiment with MK-8033 + Alpelisib (first compound 0.2 µM) was 0.83; with MK-8033 + Alpelisib (first compound 0.6325 µM), 0.456; with MK-8033 + Alpelisib (first compound 2 µM), 0.651; with Irinotecan + Foretinib (first compound 0.6325 µM), 0.885; with Irinotecan + Foretinib (first compound 2 µM) it was 0.611; in the experiment with Irinotecan + Foretinib (first compound 6.325 µM) it was 0.122. Further, the relative viability in the experiment with Irinotecan + Foretinib (first compound 20 µM) amounted to 0.0515.
Take A-427: the relative viability amounted to 1.02 with RU-SKI 43 + Pemetrexed (first compound 0.1 µM); 0.948 with RU-SKI 43 + Pemetrexed (first compound 0.3162 µM); 1.15 with RU-SKI 43 + Pemetrexed (first compound 1 µM); 1.04 with RU-SKI 43 + Pemetrexed (first compound 3.162 µM); 0.995 in the experiment with RU-SKI 43 + Pemetrexed (first compound 10 µM); 0.392 with Irinotecan + Pictilisib (first compound 2 µM). Moreover, the relative viability with Irinotecan + Pictilisib (first compound 6.325 µM) worked out at 0.19; in the experiment with Irinotecan + Pictilisib (first compound 20 µM), 0.225; with MK-8033 + Alpelisib (first compound 0.02 µM), 1.05; with MK-8033 + Alpelisib (first compound 0.06325 µM), 1.07; with MK-8033 + Alpelisib (first compound 0.2 µM) it was 1.03; in the experiment with MK-8033 + Alpelisib (first compound 0.6325 µM), 1.16. In addition, the relative viability in the experiment with MK-8033 + Alpelisib (first compound 2 µM) was determined as 1.11; with Irinotecan + Foretinib (first compound 2 µM) it was 0.24; with Irinotecan + Foretinib (first compound 6.325 µM), 0.229; in the experiment with Irinotecan + Foretinib (first compound 20 µM), 0.219.
Turning to ABC-1, the relative viability turned out to be 0.556 with Irinotecan + Pictilisib (first compound 2 µM); 0.424 with Irinotecan + Pictilisib (first compound 6.325 µM); 0.112 with Irinotecan + Pictilisib (first compound 20 µM); 1.12 with MK-8033 + Alpelisib (first compound 0.02 µM); 1.12 with MK-8033 + Alpelisib (first compound 0.06325 µM); 1.15 in the experiment with MK-8033 + Alpelisib (first compound 0.2 µM). The relative viability stood at 1.04 with MK-8033 + Alpelisib (first compound 0.6325 µM); 1.08 with MK-8033 + Alpelisib (first compound 2 µM); 0.617 in the experiment with Irinotecan + Foretinib (first compound 2 µM); 0.28 with Irinotecan + Foretinib (first compound 6.325 µM); 0.152 with Irinotecan + Foretinib (first compound 20 µM).
BEN: the relative viability with RU-SKI 43 + Pemetrexed (first compound 0.1 µM) worked out at 0.941; in the experiment with RU-SKI 43 + Pemetrexed (first compound 0.3162 µM), 0.682; with RU-SKI 43 + Pemetrexed (first compound 1 µM) it was 0.997; with RU-SKI 43 + Pemetrexed (first compound 3.162 µM), 0.665; in the experiment with RU-SKI 43 + Pemetrexed (first compound 10 µM), 0.825; with Irinotecan + Pictilisib (first compound 0.6325 µM), 0.508. For the same cell line, the relative viability came out at 0.461 with Irinotecan + Pictilisib (first compound 2 µM); 0.253 with Irinotecan + Pictilisib (first compound 6.325 µM); 0.349 with Irinotecan + Pictilisib (first compound 20 µM); 0.914 with MK-8033 + Alpelisib (first compound 0.02 µM); 0.89 in the experiment with MK-8033 + Alpelisib (first compound 0.06325 µM); 1 with MK-8033 + Alpelisib (first compound 0.2 µM). In addition, the relative viability with MK-8033 + Alpelisib (first compound 0.6325 µM) was 1.08; with MK-8033 + Alpelisib (first compound 2 µM) it was 1; in the experiment with Irinotecan + Foretinib (first compound 0.6325 µM), 0.328; with Irinotecan + Foretinib (first compound 2 µM) it was 0.613; with Irinotecan + Foretinib (first compound 6.325 µM) it was 0.206; in the experiment with Irinotecan + Foretinib (first compound 20 µM), 0.324.
For CAL-12T, the relative viability with RU-SKI 43 + Pemetrexed (first compound 0.1 µM) was 1.16; in the experiment with RU-SKI 43 + Pemetrexed (first compound 0.3162 µM), 1.36; with RU-SKI 43 + Pemetrexed (first compound 1 µM), 1.39; in the experiment with RU-SKI 43 + Pemetrexed (first compound 3.162 µM), 1.2; with RU-SKI 43 + Pemetrexed (first compound 10 µM) it was 1.22; in the experiment with Irinotecan + Pictilisib (first compound 0.6325 µM) it was 0.4. The relative viability came out at 0.396 in the experiment with Irinotecan + Pictilisib (first compound 2 µM); 0.443 with Irinotecan + Pictilisib (first compound 6.325 µM); 0.327 with Irinotecan + Pictilisib (first compound 20 µM); 1.08 with MK-8033 + Alpelisib (first compound 0.02 µM); 1.08 with MK-8033 + Alpelisib (first compound 0.06325 µM); 1.08 with MK-8033 + Alpelisib (first compound 0.2 µM). In addition, the relative viability amounted to 1.25 in the experiment with MK-8033 + Alpelisib (first compound 0.6325 µM); 1.06 with MK-8033 + Alpelisib (first compound 2 µM); 0.924 with Irinotecan + Foretinib (first compound 2 µM); 0.398 in the experiment with Irinotecan + Foretinib (first compound 6.325 µM); 0.293 with Irinotecan + Foretinib (first compound 20 µM).
On to COR-L23, for which the relative viability in the experiment with RU-SKI 43 + Pemetrexed (first compound 0.1 µM) is 0.203; in the experiment with RU-SKI 43 + Pemetrexed (first compound 0.3162 µM), 0.202; with RU-SKI 43 + Pemetrexed (first compound 1 µM), 0.205; with RU-SKI 43 + Pemetrexed (first compound 3.162 µM), 0.22; with RU-SKI 43 + Pemetrexed (first compound 10 µM), 0.189; with Irinotecan + Pictilisib (first compound 0.6325 µM), 0.338. Moreover, the relative viability came out at 0.363 in the experiment with Irinotecan + Pictilisib (first compound 2 µM); 0.228 with Irinotecan + Pictilisib (first compound 6.325 µM); 0.0867 with Irinotecan + Pictilisib (first compound 20 µM); 0.71 with MK-8033 + Alpelisib (first compound 0.02 µM); 0.864 with MK-8033 + Alpelisib (first compound 0.06325 µM); 0.74 with MK-8033 + Alpelisib (first compound 0.2 µM). The relative viability was found to be 0.828 in the experiment with MK-8033 + Alpelisib (first compound 0.6325 µM); 0.645 with MK-8033 + Alpelisib (first compound 2 µM); 0.525 with Irinotecan + Foretinib (first compound 0.6325 µM); 0.446 in the experiment with Irinotecan + Foretinib (first compound 2 µM); 0.183 with Irinotecan + Foretinib (first compound 6.325 µM); 0.192 with Irinotecan + Foretinib (first compound 20 µM).
For COR-L 105, the relative viability with RU-SKI 43 + Pemetrexed (first compound 0.1 µM) is 1.11; with RU-SKI 43 + Pemetrexed (first compound 0.3162 µM), 1.12; with RU-SKI 43 + Pemetrexed (first compound 1 µM) it was 1.17; with RU-SKI 43 + Pemetrexed (first compound 3.162 µM) it was 1.04; with RU-SKI 43 + Pemetrexed (first compound 10 µM), 1.03; with Irinotecan + Pictilisib (first compound 0.6325 µM), 0.309. In addition, the relative viability with Irinotecan + Pictilisib (first compound 2 µM) is 0.515; with Irinotecan + Pictilisib (first compound 6.325 µM), 0.411; with Irinotecan + Pictilisib (first compound 20 µM), 0.231; in the experiment with MK-8033 + Alpelisib (first compound 0.02 µM) it was 0.822; with MK-8033 + Alpelisib (first compound 0.06325 µM), 1.07; in the experiment with MK-8033 + Alpelisib (first compound 0.2 µM) it was 0.962. Moreover, the relative viability was 0.928 with MK-8033 + Alpelisib (first compound 0.6325 µM); 0.733 with MK-8033 + Alpelisib (first compound 2 µM); 1.11 with Irinotecan + Foretinib (first compound 0.6325 µM); 0.8 with Irinotecan + Foretinib (first compound 2 µM); 0.682 in the experiment with Irinotecan + Foretinib (first compound 6.325 µM); 0.524 in the experiment with Irinotecan + Foretinib (first compound 20 µM).
